Measurements published in ChEMBL document CHEMBL5120764, “Isarubrolone C Promotes Autophagic Degradation of Virus Proteins via Activating ATG10S in HepG2 Cells” (J Nat Prod, 2022).
The source made the active and inactive calls.

How the values were obtained:
Type in all cases: functional, cell-based
HepG2 [1] = experiment: Induction of autophagy in human HepG2 cells transfected with HIV-RT assessed as decrease in HIV-RT protein level upto 10 uM and measured after 6 hrs by western blot analysis; details: DDE = dose-dependent effect
HepG2 [2] = experiment: Induction of autophagy in human HepG2 cells transfected with HIV-RT assessed as increase in HIV-RT-LC3B interaction level at 10 uM incubated for 24 hrs in presence of anti-Flag antibodies by co-immunoprecipitation assay
HepG2 [3] = experiment: Upregulation of IL28A mRNA expression level in human HepG2 cells transfected with HCV sub-replicon upto 10 uM by qRT-PCR analysis; details: DDE = dose-dependent effect
HepG2 [4] = experiment: Effect on HIV-RT degradation in human HepG2 cells transfected with HIV-RT at 10 uM pretreated with proteosome inhibitor MG132 for 12 hrs followed by compound addition and measured after 24 hrs by western blot analysis
HepG2 [5] = experiment: Induction of autophagy in human HepG2 cells transfected with HCV subgenomic replicon assessed as HCV-NS5B/P62 combination at 10 uM incubated for 24 hrs in presence of anti-LAMP2 antibodies by co-immunoprecipitation assay
HepG2 [6] = experiment: Induction of autophagy in human HepG2 cells assessed as increase in IL28A protein level upto 10 uM and measured after 6 hrs by western blot analysis; details: DDE = dose-dependent effect
HepG2 [7] = experiment: Induction of autophagy in human HepG2 cells transfected with HIV-RT assessed as increase in HIV-RT-LAMP2 interaction level at 10 uM incubated for 24 hrs in presence of anti-Flag antibodies by co-immunoprecipitation assay
HepG2 [8] = experiment: Upregulation of endogenous ATG10S activated co-localisation of HCV-NS5B with LC3B in human HepG2 cells co-transfected with HCV sub-replicon and ATG10-misMO by cellular immunofluorescence assay
HepG2 [9] = experiment: Upregulation of endogenous ATG10S activated co-localisation of HIV-RT with LC3B in human HepG2 cells co-transfected with HIV-RT and ATG10-misMO by cellular immunofluorescence assay
HepG2 [10] = experiment: Downregulation of ZIKV-NS5 in human HepG2 cells transfected with ZIKV-NS5 upto 10 uM incubated for 24 hrs by western blot analysis
HepG2 [11] = experiment: Upregulation of endogenous ATG10S activated co-localisation of ZIKV-NS5 with LC3B in human HepG2 cells co-transfected with ZIKV-NS5 and ATG10-sMO by cellular immunofluorescence assay
HepG2 [12] = experiment: Effect on P62 degradation in human HepG2 cells at 10 uM pretreated with proteosome inhibitor MG132 for 12 hrs followed by compound addition and measured after 24 hrs by western blot analysis
HepG2 [13] = experiment: Upregulation of ATG10/ATG10S mRNA level in human HepG2 cells transfected with HCV sub-replicon upto 10 uM by RT-PCR analysis; details: DDE = dose-dependent effect
HepG2 [14] = experiment: Induction of autophagy in human HepG2 cells transfected with HCV subgenomic replicon assessed as HCV-NS5B/LC3B combination at 10 uM incubated for 24 hrs in presence of anti-LAMP2 antibodies by co-immunoprecipitation assay
HepG2 [15] = experiment: Induction of autophagy in human HepG2 cells transfected with HCV subgenomic replicon assessed as HCV-NS5B/LAMP2 combination at 10 uM incubated for 24 hrs in presence of anti-LAMP2 antibodies by co-immunoprecipitation assay
HepG2 [16] = experiment: Induction of autophagy in human HepG2 cells transfected with ZIKV-NS5 assessed as increase in ZIKV-NS5-LC3B interaction level at 10 uM incubated for 24 hrs in presence of anti-Flag antibodies by co-immunoprecipitation assay
HepG2 [17] = experiment: Effect on HCV-CORE degradation in human HepG2 cells transfected with HCV sub-replicon at 10 uM pretreated with proteosome inhibitor MG132 for 12 hrs followed by compound addition and measured after 24 hrs by western blot analysis
HepG2 [18] = experiment: Upregulation of LC3B in human HepG2 cells transfected with HIV-RT and gene knockdown by IL28A morpholinos at 10 uM incubated for 24 hrs by western blot analysis
HepG2 [19] = experiment: Effect on HCV-NS5B degradation in human HepG2 cells transfected with HCV sub-replicon at 10 uM pretreated with proteosome inhibitor MG132 for 12 hrs followed by compound addition and measured after 24 hrs by western blot analysis
HepG2 [20] = experiment: Effect on HBx degradation in human HepG2 cells transfected with HBx at 10 uM pretreated with proteosome inhibitor MG132 for 12 hrs followed by compound addition and measured after 24 hrs by western blot analysis
HepG2 [21] = experiment: Upregulation of LC3B in human HepG2 cells transfected with HCV sub-replicon and gene knockdown by IL28A morpholinos at 10 uM incubated for 24 hrs by western blot analysis
HepG2 [22] = experiment: Upregulation of P62 in human HepG2 cells transfected with HBx and gene knockdown by IL28A morpholinos at 10 uM incubated for 24 hrs by western blot analysis
HepG2 [23] = experiment: Downregulation of HCV-NS5B in human HepG2 cells co-transfected with HCV-subreplicon and ATG10-misMO upto 10 uM incubated for 24 hrs by western blot analysis
HepG2 [24] = experiment: Induction of autophagy in human HepG2 cells transfected with HCV subgenomic replicon assessed as HCV-CORE/ATG10/ATG10S combination at 10 uM incubated for 24 hrs in presence of anti-LAMP2 antibodies by co-immunoprecipitation assay
HepG2 [25] = experiment: Upregulation of endogenous ATG10S activated co-localisation of HCV-NS5B with LAMP2 in human HepG2 cells co-transfected with HCV sub-replicon and ATG10-misMO by cellular immunofluorescence assay
HepG2 [26] = experiment: Upregulation of IL28A mRNA expression level in human HepG2 cells transfected with ZIKV-NS5 upto 10 uM by qRT-PCR analysis; details: DDE = dose-dependent effect
HepG2 [27] = experiment: Induction of autophagy in human HepG2 cells transfected with ZIKV-NS5 assessed as increase in ZIKV-NS5-P62 interaction level at 10 uM incubated for 24 hrs in presence of anti-Flag antibodies by co-immunoprecipitation assay
HepG2 [28] = experiment: Upregulation of ZIKV-NS5 in human HepG2 cells transfected with ZIKV-NS5 and gene knockdown by IL28A morpholinos at 10 uM incubated for 24 hrs by western blot analysis
HepG2 [29] = experiment: Upregulation of endogenous ATG10S activated co-localisation of HIV-RT with LC3B in human HepG2 cells co-transfected with HIV-RT and ATG10-sMO by cellular immunofluorescence assay
HepG2 [30] = experiment: Downregulation of HCV-CORE in human HepG2 cells transfected with HCV-subreplicon upto 10 uM incubated for 24 hrs by western blot analysis
HepG2 [31] = experiment: Upregulation of LC3B in human HepG2 cells transfected with HBx and gene knockdown by IL28A morpholinos at 10 uM incubated for 24 hrs by western blot analysis
HepG2 [32] = experiment: Induction of autophagy in human HepG2 cells transfected with HCV sub-replicon assessed as decrease in HCV-NS5B protein level upto 10 uM and measured after 6 hrs by western blot analysis; details: DDE = dose-dependent effect

Measured: Activity

CC[C@@H](O)c1nc(C)cc2c1C(=O)c1cc(=O)c3c(c(O)c1-2)O[C@@H]1O[C@H](C)[C@@H](OC)[C@@H](O)[C@]31O
active: HepG2 [1] Dde | HepG2 [2] | HepG2 [3] Dde | HepG2 [4] | HepG2 [5] | HepG2 [6] Dde | HepG2 [7] | HepG2 [8] | HepG2 [9] | HepG2 [10] | HepG2 [11] | HepG2 [12] | HepG2 [13] Dde | HepG2 [14] | HepG2 [15] | HepG2 [16] | HepG2 [17] | HepG2 [18] | HepG2 [19] | HepG2 [20] | HepG2 [21] | HepG2 [22] | HepG2 [23] | HepG2 [24] | HepG2 [25] | HepG2 [26] Dde | HepG2 [27] | HepG2 [28] | HepG2 [29] | HepG2 [30] | HepG2 [31] | HepG2 [32] Dde
